# Experimental data: patent US20220306695A1, “COMPSTATIN ANALOGUES AND THEIR MEDICAL USES” (priority 2019, published 2022)
# Starred links: 1 amine or outer side, 2 acyl side, 3 side chain; linkers in the order of their positions; H or OH if unused. Positions of bridges follow the written chain, without caps; N, C: chain ends. Non-standard residues stand in square brackets, D forms with d. Residues, ends and D or L forms follow the SMILES beside them. Groups on a side chain read outwards from the residue. *: point of attachment. Trp(1-Me) = Cn1cc(C[C@H](N)C(=O)O)c2ccccc21; C18 diacid = O=C(O)CCCCCCCCCCCCCCCCC(=O)*; γGlu = O=C(O)[C@H](CCC(=O)[*:2])N[*:1]; Sar = CNCC(=O)O
# Tests used:
# [1] = Solubility test at 10 mg/mL (visual inspection and light scattering); format: physicochemical; details: for Solubility, Condition 1 Acetate pH 4: 10 mg/mL compound in 100 mM acetate pH 4; for Solubility, Condition 2 Acetate pH 5: 10 mg/mL compound in 100 mM acetate pH 5; for Solubility, Condition 3 Phosphate pH 6: 10 mg/mL compound in 100 mM phosphate pH 6; for Solubility, Condition 4 Phosphate pH 7: 10 mg/mL compound in 100 mM phosphate pH 7; for Solubility, Condition 5 Phosphate pH 7.5: 10 mg/mL compound in 100 mM phosphate pH 7.5
# [2] = system: classical complement pathway; test: In vitro haemolysis assay (inhibition of classical complement pathway); format: cell-based, human; details: Table 3; human serum, sensitized sheep red blood cells; read-out: IC50[nM], in vitro analysis of inhibition of hemolysis
# Procedure, shortened: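 Serially diluted compound (9 points) was preincubated 15 min at room temperature with diluted human serum, titrated per batch to give 70-90% maximal haemolysis, in Tris/casein buffer pH 7.4 with Mg2+/Ca2+. Antibody-sensitized sheep erythrocytes were then added for 30 min at 37° C, and the reaction was stopped with EDTA. Haemolysis was read at A405, with IC50 from 4PL fit.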
Structure (SMILES),"Solubility, Condition 1 Acetate pH 4 [1]","Solubility, Condition 2 Acetate pH 5 [1]","Solubility, Condition 3 Phosphate pH 6 [1]","Solubility, Condition 4 Phosphate pH 7 [1]","Solubility, Condition 5 Phosphate pH 7.5 [1]",IC50 [2]
CC[C@H](C)[C@@H]1NC(=O)[C@@H](NC(=O)CN(C)C(=O)[C@H](CCC(=O)O)NC(=O)[C@H](CO)NC(C)=O)CSSC[C@@H](C(=O)N(C)CC(=O)N[C@@H](CCC(=O)O)C(=O)N[C@@H](C)C(N)=O)NC(=O)[C@H](CCCNC(=N)N)NC(=O)[C@H](Cc2c[nH]cn2)NC(=O)[C@H](CCC(=O)O)NC(=O)CNC(=O)[C@H](Cc2c[nH]c3ccccc23)NC(=O)[C@H](CC(=O)O)NC(=O)[C@H](CCC(N)=O)NC(=O)[C@H](Cc2cn(C)c3ccccc23)NC1=O [Compound 81] (Ac-SE[Sar]CI[Trp(1-Me)]QDWGEHRC[Sar]EA-NH2; disulfide 4-14),"− (denotes lack of solubility at the given condition, as UV absorbance at 340 nm exceeds 0.1 AU and/or it is visibly turbid or contains particles.)","− (denotes lack of solubility at the given condition, as UV absorbance at 340 nm exceeds 0.1 AU and/or it is visibly turbid or contains particles.)","+ (denotes solubility at the given condition, as determined by UV absorbance being less than 0.1 AU at 340 nm and the sample being clear when manually inspected.)","+ (denotes solubility at the given condition, as determined by UV absorbance being less than 0.1 AU at 340 nm and the sample being clear when manually inspected.)","+ (denotes solubility at the given condition, as determined by UV absorbance being less than 0.1 AU at 340 nm and the sample being clear when manually inspected.)",< 100 nM
CC[C@H](C)[C@@H]1NC(=O)[C@@H](NC(=O)[C@H](Cc2ccccc2)NC(=O)[C@H](CCC(=O)O)NC(=O)[C@H](CO)NC(C)=O)CSSC[C@@H](C(=O)N(C)CC(=O)NCC(=O)N[C@@H](C)C(=O)N[C@@H](CCC(=O)O)C(=O)N[C@@H](CO)C(N)=O)NC(=O)[C@H](CCCNC(=N)N)NC(=O)[C@H](Cc2c[nH]cn2)NC(=O)[C@H](CCC(=O)O)NC(=O)CNC(=O)[C@H](Cc2c[nH]c3ccccc23)NC(=O)[C@H](CC(=O)O)NC(=O)[C@H](CCC(N)=O)NC(=O)[C@H](Cc2cn(C)c3ccccc23)NC1=O [Compound 74] (Ac-SEFCI[Trp(1-Me)]QDWGEHRC[Sar]GAES-NH2; disulfide 4-14),"− (denotes lack of solubility at the given condition, as UV absorbance at 340 nm exceeds 0.1 AU and/or it is visibly turbid or contains particles.)","+ (denotes solubility at the given condition, as determined by UV absorbance being less than 0.1 AU at 340 nm and the sample being clear when manually inspected.)","+ (denotes solubility at the given condition, as determined by UV absorbance being less than 0.1 AU at 340 nm and the sample being clear when manually inspected.)","+ (denotes solubility at the given condition, as determined by UV absorbance being less than 0.1 AU at 340 nm and the sample being clear when manually inspected.)","+ (denotes solubility at the given condition, as determined by UV absorbance being less than 0.1 AU at 340 nm and the sample being clear when manually inspected.)",< 100 nM
CC[C@H](C)[C@@H]1NC(=O)[C@@H](NC(=O)[C@H](Cc2ccc(O)cc2)NC(=O)[C@H](CCC(=O)O)NC(=O)[C@H](CO)NC(C)=O)CSSC[C@@H](C(=O)N(C)CC(=O)N[C@@H](CCC(=O)O)C(=O)NCC(=O)N[C@@H](CCCCN)C(=O)N[C@@H](CCCCNC(=O)CC[C@H](NC(=O)CNC(=O)CC[C@H](NC(=O)CCCCCCCCCCCCCCCCC(=O)O)C(=O)O)C(=O)O)C(N)=O)NC(=O)[C@H](CCCNC(=N)N)NC(=O)[C@H](Cc2c[nH]cn2)NC(=O)[C@H](CCC(=O)O)NC(=O)CNC(=O)[C@H](Cc2c[nH]c3ccccc23)NC(=O)[C@H](CC(=O)O)NC(=O)[C@H](CCC(N)=O)NC(=O)[C@H](Cc2cn(C)c3ccccc23)NC1=O [Compound 115] (Ac-SEYCI[Trp(1-Me)]QDWGEHRC[Sar]EGKK([γGlu-Gly-γGlu-C18 diacid])-NH2; disulfide 4-14),"− (denotes lack of solubility at the given condition, as UV absorbance at 340 nm exceeds 0.1 AU and/or it is visibly turbid or contains particles.)","− (denotes lack of solubility at the given condition, as UV absorbance at 340 nm exceeds 0.1 AU and/or it is visibly turbid or contains particles.)","+ (denotes solubility at the given condition, as determined by UV absorbance being less than 0.1 AU at 340 nm and the sample being clear when manually inspected.)","+ (denotes solubility at the given condition, as determined by UV absorbance being less than 0.1 AU at 340 nm and the sample being clear when manually inspected.)","+ (denotes solubility at the given condition, as determined by UV absorbance being less than 0.1 AU at 340 nm and the sample being clear when manually inspected.)",< 250 nM
CC[C@H](C)[C@H](NC(=O)[C@H](C)NC(=O)[C@H](CO)NC(C)=O)C(=O)N[C@H]1CSSC[C@@H](C(=O)N(C)CC(=O)N[C@@H](CCC(=O)O)C(N)=O)NC(=O)[C@H](CCCNC(=N)N)NC(=O)[C@H](Cc2c[nH]cn2)NC(=O)[C@H](CCC(=O)O)NC(=O)CNC(=O)[C@H](Cc2c[nH]c3ccccc23)NC(=O)[C@H](CC(=O)O)NC(=O)[C@H](CCC(N)=O)NC(=O)[C@H](Cc2c[nH]c3ccccc23)NC(=O)[C@H]([C@@H](C)CC)NC1=O [Compound 41] (Ac-SAICIWQDWGEHRC[Sar]E-NH2; disulfide 4-14),"− (denotes lack of solubility at the given condition, as UV absorbance at 340 nm exceeds 0.1 AU and/or it is visibly turbid or contains particles.)","− (denotes lack of solubility at the given condition, as UV absorbance at 340 nm exceeds 0.1 AU and/or it is visibly turbid or contains particles.)","+ (denotes solubility at the given condition, as determined by UV absorbance being less than 0.1 AU at 340 nm and the sample being clear when manually inspected.)","+ (denotes solubility at the given condition, as determined by UV absorbance being less than 0.1 AU at 340 nm and the sample being clear when manually inspected.)","+ (denotes solubility at the given condition, as determined by UV absorbance being less than 0.1 AU at 340 nm and the sample being clear when manually inspected.)",< 250 nM
CC[C@H](C)[C@@H]1NC(=O)[C@@H](NC(=O)[C@@H](NC(=O)[C@H](CCC(=O)O)NC(=O)[C@H](CO)NC(=O)[C@H](CCC(=O)O)NC(C)=O)[C@@H](C)CC)CSSC[C@@H](C(=O)N[C@@H](CCC(=O)O)C(=O)NCC(=O)N[C@@H](CCC(=O)O)C(N)=O)NC(=O)[C@H](CCCNC(=N)N)NC(=O)[C@H](Cc2c[nH]cn2)NC(=O)[C@H](CCC(=O)O)NC(=O)CNC(=O)[C@H](Cc2c[nH]c3ccccc23)NC(=O)[C@H](CC(=O)O)NC(=O)[C@H](CCC(N)=O)NC(=O)[C@H](Cc2c[nH]c3ccccc23)NC1=O [Compound 36] (Ac-ESEICIWQDWGEHRCEGE-NH2; disulfide 5-15),"− (denotes lack of solubility at the given condition, as UV absorbance at 340 nm exceeds 0.1 AU and/or it is visibly turbid or contains particles.)","− (denotes lack of solubility at the given condition, as UV absorbance at 340 nm exceeds 0.1 AU and/or it is visibly turbid or contains particles.)","− (denotes lack of solubility at the given condition, as UV absorbance at 340 nm exceeds 0.1 AU and/or it is visibly turbid or contains particles.)","+ (denotes solubility at the given condition, as determined by UV absorbance being less than 0.1 AU at 340 nm and the sample being clear when manually inspected.)","+ (denotes solubility at the given condition, as determined by UV absorbance being less than 0.1 AU at 340 nm and the sample being clear when manually inspected.)",< 250 nM
"CC[C@H](C)[C@@H]1NC(=O)[C@@H](NC(=O)[C@H](Cc2ccccc2)NC(=O)[C@H](CCC(=O)O)NC(=O)[C@H](CO)NC(C)=O)CSSC[C@@H](C(=O)N(C)CC(=O)N[C@@H](CCC(=O)O)C(N)=O)NC(=O)[C@H](CCCNC(=N)N)NC(=O)[C@H](Cc2c[nH]cn2)NC(=O)[C@H](CCC(=O)O)NC(=O)CN(C)C(=O)[C@H](Cc2c[nH]c3ccccc23)NC(=O)[C@H](CC(=O)O)NC(=O)[C@H](CCC(N)=O)NC(=O)[C@H](Cc2cn(C)c3ccccc23)NC1=O [Compound 79, Ac-SEFC(1)I[1-Me-Trp]QDW[Sar]EHRC(1)[Sar]E-NH2] (Ac-SEFCI[Trp(1-Me)]QDW[Sar]EHRC[Sar]E-NH2; disulfide 4-14)","− (denotes lack of solubility at the given condition, as UV absorbance at 340 nm exceeds 0.1 AU and/or it is visibly turbid or contains particles.)","− (denotes lack of solubility at the given condition, as UV absorbance at 340 nm exceeds 0.1 AU and/or it is visibly turbid or contains particles.)","+ (denotes solubility at the given condition, as determined by UV absorbance being less than 0.1 AU at 340 nm and the sample being clear when manually inspected.)","+ (denotes solubility at the given condition, as determined by UV absorbance being less than 0.1 AU at 340 nm and the sample being clear when manually inspected.)","+ (denotes solubility at the given condition, as determined by UV absorbance being less than 0.1 AU at 340 nm and the sample being clear when manually inspected.)",< 100 nM
